The text below walks through data of publication PMC8248323 (Clinical Pharmacology in Drug Development, 2021).

Marks after values point to notes of the source that are not given here.

This data set is described as follows: Phase 1 DDI study 004 part B: midazolam. Particulars: for effect of lemborexant coadministration on exposure: coadministration with lemborexant 10 mg; for AUC: human, plasma, Geometric LSM.
Where [1] appears, read: coadministration of lemborexant with bupropion.
Setting [2] is: with lemborexant / without lemborexant.

As usually defined, the AUC is the area under the concentration-time curve, a measure of exposure.

With `C[C@@H]1NC(C)(C)CO[C@@]1(O)c1cccc(Cl)c1` [[S,S]‐hydroxylated bupropion], the “AUC0‐t metabolite/parent ratio” value reads like this: (bupropion with lemborexant) 124%; (bupropion without lemborexant) 88.7%. The “decrease in AUC0‐t” value under setting [1] is 24.5%. Also, the “decrease in Cmax” value under setting [1] was 17%. Moreover, the “Cmax, Geometric LSM” value was 6.57 ^c ng/mL (midazolam 2 mg + bupropion 75 mg + lemborexant 10 mg daily) and 7.93 ng/mL (midazolam 2 mg + bupropion 75 mg, without lemborexant). The “AUC0‐t, Geometric LSM” value (midazolam 2 mg + bupropion 75 mg + lemborexant 10 mg daily (n = 28)) was 53.2 ^c ng·h/mL and the “AUC0‐t, Geometric LSM” value (midazolam 2 mg + bupropion 75 mg single dose, without lemborexant (n = 27)) came to 70.5 ng·h/mL. The “AUC0‐t, Geometric Mean Ratio (90%CI)” value under setting [2] is listed as 0.755 (0.661–0.862). The “Cmax, Geometric Mean Ratio (90%CI)” value under setting [2] was 0.829 (0.759–0.905).

As to `Cc1ncc2n1-c1ccc(Cl)cc1C(c1ccccc1F)=NC2` [Midazolam], the “effect of lemborexant coadministration on exposure” value is given as “not affected”. Moreover, the “effect of lemborexant coadministration on exposure” value (listed as midazolam) is reported as “did not have an effect”. Also, the AUC (AUC0‐inf, midazolam 2 mg + bupropion 75 mg + lemborexant 10 mg daily) came out at 24.1 ng·h/mL. In addition, where the note is “AUC0‐inf, midazolam 2 mg + bupropion 75 mg, without lemborexant”, the AUC is 21.4 ng·h/mL. For the same compound, the area under the curve (AUC) (AUC0‐t, midazolam 2 mg + bupropion 75 mg + lemborexant 10 mg daily (n = 28)) was determined as 22.9 ng·h/mL. The area under the curve (AUC) (AUC0‐t, midazolam 2 mg + bupropion 75 mg single dose, without lemborexant (n = 27)) stood at 20.2 ng·h/mL. Also, under setting [2], the “AUC0‐inf, Geometric Mean Ratio (90%CI)” value is on record as 1.130 (1.023–1.247); the “AUC0‐t, Geometric Mean Ratio (90%CI)” value is on record as 1.133 (1.025–1.253); the “Cmax, Geometric Mean Ratio (90%CI)” value is listed as 1.126 (1.026–1.236).
